Data taken from patent US20240425589A1, “CYTOTOXICITY-INDUCING THERAPEUTIC AGENT FOR USE IN TREATMENT OF CANCER” (CHUGAI SEIYAKU KABUSHIKI KAISHA, priority 2021, published 2024).
Counter-ions that a name gives are not always drawn.

Columns and labels:
[1] = test system: CLDN6 expression in OV-90; assay: CLDN6 expression by FACS after PARP inhibitor, OV-90; assay type: cell-based, human; settings: BRAC1 wildtype OV-90, 0.03-3 μM, 3 days
Procedure: (§1) Induction of CLDN6 expression by a PARP inhibitor (olaparib) was assessed. BRCA1-deficient ovarian cancer cell line UWB1.289 (ATCC) or BRAC1 wildtype ovarian cancer cell line OV-90 (ATCC) which express human CLDN6 were used.
(§2) Target cells (3×10^5 cells) were plated onto a 6-well plate at 3 mL/well. After culturing overnight, olaparib was added at a final concentration of 0.03, 0.1, 0.3, 1, or 3 μM. DMSO was added to the control well. After incubating the plate for 3 days, the cells were recovered and the amount of CLDN6 expression on the cell surface was determined by FACS analysis using an anti-CLDN6 antibody. The level of fluorescence in the target cells recovered from the wells, to which various concentrations of olaparib were added, are shown in FIG. 27, wherein the level of fluorescence in the target cells recovered from the control well was defined as 1.

[2] = test system: CLDN6 expression in UWB1.289; assay: CLDN6 expression by FACS after PARP inhibitor, UWB1.289; assay type: cell-based, human; settings: BRCA1-deficient UWB1.289, 0.03-3 μM, 3 days
Procedure: as §1, §2

[3] = test system: NIH:OVCAR-3; assay: OVCAR3 xenograft in huNOG mice, combination with irinotecan hydrochloride; assay type: in vivo; settings: 60 days after transplantation; CS4135 0.1 mg/kg, irinotecan hydrochloride 25 mg/kg, iv days 39, 46
Procedure: In this test, NOG(huNOG) mice (described in the aforementioned Example 13) transplanted with ovarian cancer cell line NIH:OVCAR-3 (OVCAR3, ATCC) and human CD34-positive cells were used. The OVCAR3 cell line was transplanted subcutaneously to the right flank of the mice, and the mice were divided into groups 39 days after transplantation. Individuals whose tumor volume reached 160 to 263 mm^3 were divided into groups. Vehicle 1 and CS4135 were administered into the mouse tail vein 39 and 46 days after transplantation. PBS containing 0.05% Tween-20 was used as Vehicle 1. Vehicle 2 and irinotecan hydrochloride (Sawai Pharmaceutical Co., Ltd.) were administered into the mouse tail vein 39 and 46 days after transplantation. Physiological saline was used as Vehicle 2.
Tumor volume was measured 39, 42, 46, 49, 53, 57, and 60 days after transplantation, and the average tumor volume is indicated for each group. The tumor volume was calculated by the following equation: […]
(§3) Tumor Growth Inhibition (TGI) was calculated by the following equation: […]

[4] = test system: CLDN6 expression in NIH-OVCAR3, NCI-H1435, SNG-M; assay: CLDN6 expression by FACS after platinum preparation treatment; assay type: cell-based, human; settings: 5 days; cisplatin 0.1 or 0.6 μg/mL, carboplatin 0.5 or 5 μg/mL; vs untreated
Procedure: Human ovarian cancer cell line (NIH-OVCAR3, ATCC), human lung cancer cell line (NCI-H1435, ATCC), and human endometrial cancer cell line (SNG-M, Health Science Research Resources Bank) were treated with cisplatin (CDDP, Nichiiko) or carboplatin (CBDCA, Sandoz) to analyze the effect of the treatment on CLDN6 expression.
Each cell was subjected to the addition of cisplatin at 0.1 μg/mL (OVCAR3) or 0.6 μg/mL (H1435, SNG-M), or carboplatin at 0.5 μg/mL (OVCAR3) or 5 μg/mL (H1435, SNG-M), and then cultured for five days. After culturing, the cells were recovered, and CLDN6 expression was analyzed by FACS.
In FACS analysis, cells were detached from the culturing flask and then reacted with an anti-CLDN6 antibody (AE3-20 mIgG2a, Japanese Patent No. 5848863) or an isotype antibody (mIgG2a, BioLegend) at 2 μg/mL, at 4° C. for one hour. Next, reaction with Alexa Flour 488-labeled anti-mouse IgG (ThermoFisher) at 10 μg/mL was performed at 4° C. for one hour, and the amount of CLDN6 expression was analyzed using a flow cytometer (FACSVerse, BD Biosciences).

[5] = test system: TGF-β1 expression in NIH:OVCAR-3; assay: TGF-β1 expression by quantitative PCR after chemotherapeutic agents; assay type: cell-based, human; settings: 6 days; same treated cells as Example 21.1; vs untreated
Procedure: Next, the cDNAs prepared from the human ovarian cancer cell line (NIH:OVCAR-3, ATCC) treated with carboplatin, cisplatin, irinotecan, or gemcitabine, which were used in Example 21.1, were used to perform real-time PCR with TGF-β1-specific primers (Power SYBR (registered trademark) Green Master Mix, ThermoFisher), and TGF-β1 expression was analyzed (QuantStudio 12K Flex Real-Time PCR System, ThermoFisher).
Sequences of the primers for human TGF-β1 are as follows: […]
The same primers as those in the above-mentioned Example 21.1 were used as the primers for human GAPDH used as the internal control.

[6] = test system: CLDN6 expression in NIH:OVCAR-3; assay: CLDN6 expression by quantitative PCR after chemotherapeutic agents; assay type: cell-based, human; settings: 6 days; carboplatin 0.5 μg/mL, cisplatin 0.1 μg/mL, irinotecan 0.25 μg/mL, gemcitabine 2 ng/mL; vs untreated
Procedure: Various chemotherapeutic agents were added to human ovarian cancer cell line (NIH:OVCAR-3, ATCC) to analyze the change in CLDN6 expression. Regarding the NIH:OVCAR-3 cells seeded on culture plates, RNAs were purified (RNeasy Mini Kit, QIAGEN) from cells to which no pharmaceutical agent was added (untreated cells), or from cells collected 6 days after addition of carboplatin (0.5 μg/mL), cisplatin (0.1 μg/mL), irinotecan (0.25 μg/mL), or gemcitabine (2 ng/mL), and then cDNA synthesis (Superscript IV VILO Master Mix, ThermoFisher) was performed. By using the cDNAs as templates, real-time PCR was performed using CLDN6-specific primers (Power SYBR (registered trademark) Green Master Mix, ThermoFisher) to analyze CLDN6 expression (QuantStudio 12K Flex Real-Time PCR System, ThermoFisher). Sequences of the primers for human CLDN6 and the primers for human GAPDH that were used as the internal control are as follows: […]

[7] = test system: TGF-β1 expression in cancer cells; settings: reported in literature; cited from earlier work
[8] = test system: CLDN6 expression in SNG-M tumor; assay: CLDN6 expression by real-time PCR in SNG-M tumor transplant; assay type: in vivo, NOD/scid mice; settings: 40 mg/kg or 80 mg/kg ip twice, vs vehicle
Procedure: SNG-M (1×10^7 cells) was transplanted subcutaneously to NOD/scid mice (CLEA Japan). After tumor engraftment, the vehicle (physiological saline) or carboplatin at 40 mg/kg or 80 mg/kg was administered intraperitoneally on the day of transplantation (day 0) and 3 days after transplantation (day 3), and the tumor was sampled 6 days after transplantation (day 6).
RNA was purified from the tumor (RNeasy Mini Kit, QIAGEN), and then cDNA synthesis was performed (Superscript IV VILO Master Mix, ThermoFisher). Using the cDNAs as templates, real-time PCR was performed using a CLDN6-specific primer (Power SYBR (registered trademark) Green Master Mix, ThermoFisher) to analyze CLDN6 expression (QuantStudio 12K Flex Real-Time PCR System, ThermoFisher).
Sequences of the primers for human CLDN6 and primers for human GAPDH used as an internal control are as follows: […]

[9] = test system: SNG-M; assay: SNG-M xenograft in huNOG mice, combination with carboplatin; assay type: in vivo; settings: 30 days after transplantation; CS4135 0.5 mg/kg iv day 13, carboplatin 40 mg/kg ip days 13, 16, 20
Procedure: In this test, NOG (huNOG) mice (described in the aforementioned Example 13) transplanted with human uterus cancer cell line SNG-M and human CD34-positive cells were used. The SNG-M cell line was transplanted subcutaneously to the right flank of the mice, and the mice were divided into groups 13 days after transplantation. Individuals whose tumor volume reached 130 to 244 mm^3 were divided into groups. Vehicle 1 and CS4135 were administered into the mouse tail vein 13 days after transplantation. PBS containing 0.05% Tween-20 was used as Vehicle 1. Vehicle 2 and carboplatin (Bristol Myers Squibb Company) were administered intraperitoneally to the mice 13, 16, and 20 days after transplantation. Physiological saline was used as Vehicle 2.
Tumor volume was measured 13, 16, 20, 23, 26, and 30 days after transplantation, and the average tumor volume was indicated for each group.
The tumor volume was calculated by the following equation: […]
as §3

[10] = test system: OVCAR3; assay: OVCAR3 xenograft in huNOG mice, combination with carboplatin; assay type: in vivo; settings: 56 days after transplantation; CS4135 0.1 mg/kg iv days 38, 45 (sequential: 48, 55), carboplatin 60 mg/kg ip days 38, 45
Procedure: In this test, NOG (huNOG) mice (described in the aforementioned Example 13) transplanted with ovarian cancer cell line OVCAR3 and human CD34-positive cells were used. The OVCAR3 cell line was transplanted subcutaneously to the right flank of the mice, and the mice were divided into groups 38 days after transplantation. Individuals whose tumor volume reached 119 to 210 mm^3 were divided into groups. Vehicle 1 and CS4135 were administered into the mouse tail vein 38 and 45 days after transplantation. PBS containing 0.05% Tween-20 was used as Vehicle 1. Vehicle 2 and carboplatin (Bristol Myers Squibb Company) were administered intraperitoneally to the mice 38 and 45 days after transplantation. Physiological saline was used as Vehicle 2.
Tumor volume was measured 38, 42, 45, 48, 52, and 56 days after transplantation, and the average tumor volume was indicated for each group. The tumor volume was calculated by the following equation: […]
as §3

## O=C(c1cc(Cc2n[nH]c(=O)c3ccccc23)ccc1F)N1CCN(C(=O)C2CC2)CC1 [olaparib]
[1]
  CLDN6 expression induction: enhancement of CLDN6 expression induction was not observed at any concentration
[2]
  CLDN6 expression induction: concentration-dependent enhancement of CLDN6 expression induction was observed

## CCc1c2c(nc3ccc(OC(=O)N4CCC(N5CCCCC5)CC4)cc13)-c1cc3c(c(=O)n1C2)COC(=O)[C@]3(O)CC [Irinotecan hydrochloride, irinotecan hydrochloride, reference compound]
[3]
  Tumor growth inhibition: TGI: 65%

## N.N.[Cl][Pt][Cl] [cisplatin]
[4]
  CLDN6 expression: increase in CLDN6 expression
[5]
  TGF-β1 expression: Increase in TGF-β1 expression was observed
[6]
  CLDN6 expression: Increase in CLDN6 expression was observed

## COc1cccc2c1C(=O)c1c(O)c3c(c(O)c1C2=O)C[C@@](O)(C(=O)CO)C[C@@H]3O[C@H]1C[C@H](N)[C@H](O)[C@H](C)O1 [doxorubicin]
[7]
  expression of TGF-β1 in cancer cells: induce expression of TGF-β11 in cancer cells

## CCc1c2c(nc3ccc(OC(=O)N4CCC(N5CCCCC5)CC4)cc13)-c1cc3c(c(=O)n1C2)COC(=O)[C@]3(O)CC [irinotecan]
[5]
  TGF-β1 expression: Increase in TGF-β1 expression was observed
[6]
  CLDN6 expression: Increase in CLDN6 expression was observed

## N.N.O=C([O-])C1(C(=O)[O-])CCC1.[Pt+2] [Carboplatin, carboplatin]
[8]
  CLDN6 expression in the tumor: increased
[4]
  CLDN6 expression: increase in CLDN6 expression
[9]
  Tumor growth inhibition: TGI: 44%
[5]
  TGF-β1 expression: Increase in TGF-β1 expression was observed
[6]
  CLDN6 expression: Increase in CLDN6 expression was observed
[10]
  Tumor growth inhibition: TGI: −9%

## CC(=O)O[C@H]1C(=O)[C@@]2(C)[C@H]([C@H](OC(=O)c3ccccc3)[C@]3(O)C[C@H](OC(=O)[C@H](O)[C@@H](NC(=O)c4ccccc4)c4ccccc4)C(C)=C1C3(C)C)[C@]1(OC(C)=O)CO[C@@H]1C[C@@H]2O [paclitaxel]
[7]
  expression of TGF-β1 in cancer cells: induce expression of TGF-β11 in cancer cells

## Nc1ccn([C@@H]2O[C@H](CO)[C@@H](O)C2(F)F)c(=O)n1 [gemcitabine]
[5]
  TGF-β1 expression: Increase in TGF-β1 expression was observed
[6]
  CLDN6 expression: Increase in CLDN6 expression was observed
